Laboratory results published in US20080039496A1, “Method of Modulating Neurite Outgrowth by the use of a Galanin-3 Receptor Antagonist” (priority 2006, published 2008).

Key:
[1] = tested on: PC12 sub-clone, Neuroscreen-1 (NS-1) cells; assay: Neurite outgrowth assay in NS-1 cells (Example 1); type: cell-based; settings: NS-1 cells with 200 ng/mL NGF, fixed 24 hr post treatment, various concentrations; dose-dependent
Method: PC12 sub-clone, Neuroscreen-1 (NS-1) cells were plated into collagen I-coated 96 well plate (BD BioCoat) at 5,000 cells per well in RPMI complete medium with 200 ng/mL NGF. 48 hr later NS-1 cells were treated with HT-2157 at various concentrations and were subsequently fixed 24 hr post treatment.
(§1) Following fixation, Cellomics's Neurite Outgrowth reagent kit was used to label cells by a primary antibody specific for neurons. The cell nuclei were labeled by Hoechst 33342. Fluorescently labeled cells were then imaged and analyzed using Cellomics's Neurite Outgrowth and Extended Neurite Outgrowth Bioapplications on the ArrayScan HCS Reader. Images for quantitative HCS analysis were collected on the ArrayScan HCS Reader using a 10× or a 20× microscope objective.

BDNF = assay: qPCR analysis of BDNF mRNA in cultured mouse hippocampal neurons; type: cell-based; settings: 10 μM, vs vehicle
Method: (§2) C57B1/6 or CD1 mouse embryonic (E17.5) hippocampal neurons were purchased from QBM Cell Science (University of Ottawa, Ontario, Canada). Neurons were cultured on poly-D-lysine coated 96 or 24 well plates in serum free Neurobasal medium supplemented with 2% B27, 500 μM L-glutamine, and 1 mM pyruvate. Cells were plated at a density of 20,000 per well on 96 well plates (for neurite outgrowth assays), and at 100,000 per well on […] (for qPCR analysis). For neurite outgrowth assays, neurons were cultured for 2 days and then stimulated for 24 hours. For gene-expression assays, neurons were grown for 8 days and then stimulated with HT-2157 or Vehicle.
(§3) RNA was isolated from cultured neurons at the indicated timepoint after HT-2157 treatment. Per well, one RNA preparation was performed using the QIAgen RNeasy kit (Qiagen) according to the manufacturer's specifications. cDNA was generated using TaqMan Reverse transcriptase kit (Applied Biosystems). 2 real-time PCR reactions per RNA/cDNA replication were performed using the ABI prism and SDS 2.1 software. ABI assays on demand (Applied Biosystems) were used to test the mRNA levels of BDNF, NGFβ, and Hes5. The average CT value for each cDNA sample was determined. Data was then normalized to TATA binding protein (TBP) and ΔCT values were determined. mRNA levels were normalized to a vehicle (0.2% DMSO) treated control group.

Hes5 [2] = assay: qPCR analysis of Hes5 mRNA in cultured mouse hippocampal neurons; type: cell-based; set-up: dose or concentration left out as unconfirmed; settings: vs vehicle
Method: as §2, §3

[3] = tested on: cryopreserved mouse hippocampal neurons; assay: Neurite outgrowth assay in cryopreserved mouse hippocampal neurons (Example 1); type: cell-based; settings: fixed 48 hr post treatment, various concentrations
Method: The cryopreserved mouse hippocampal neurons were plated into poly-L-lysine-coated 96 well plate (BD BioCoat) at 35,000 cells per well in Neurobasal/B27 medium (Invitrogen). 24 hr later the neurons were treated with HT-2157 at various concentrations and were subsequently fixed 48 hr post treatment.
as §1

5-HT = settings: Rowley et al. Br J Pharmacol 2005, P127; cited from earlier work
NGFβ = assay: qPCR analysis of NGFβ mRNA in cultured mouse hippocampal neurons; type: cell-based; settings: 10 μM, vs vehicle
Method: as §2, §3

5-HT transmission = settings: Rowley et al. Br J Pharmacol 2005, P125; cited from earlier work
NS1 cells = assay: Neurite outgrowth assay in NS1 cells (Example 2); type: cell-based; settings: 3 μM and 10 μM
Method: Neuroscreen 1 (NS1) Cells (Cellomics Inc.) were cultured on collagen type I coated 75 cm^2 plastic flasks (Biocoat, Becton Dickinson) in a humidified incubator at 37° C. in 5% CO2. Cells were cultured in RPMI complete cell culture medium (Cambrex) supplemented with 10% heat-inactivated horse serum (Invitrogen), 5% heat-inactivated fetal bovine serum (Cellgro), and 2 mM L-glutamine (Cambrex). For expansion, the cells were trypsinized and split at 80% confluence. The cell culture media was changed every 2 to 3 days.
NS1 cells were stimulated with nerve growth factor to induce differentiation into a neuronal phenotype. NS1 cells were harvested as if they were being passaged and then counted using a Coulter counter (Becton Dickinson Coulter Z1). Cells were seeded in 96-well collagen I coated plates at a density of 2000 cells per well in volume of 200 μl. RPMI media was supplemented with 200 ng/ml nerve growth factor (NGFβ, Sigma). NS1 cells were incubated for 72 hours to allow differentiation to a neuronal phenotype. NGFβ was then diluted to 50 ng/ml and the cells were treated with siRNA or HT-2157, respectively.
(§4) Neurite outgrowth assays were performed using the Cellomics Arrayscan II Vti HCS scanner. Cells were stained using the HitKit™ HCS reagent kit (Cellomics) according to the manufactures specifications. The assay is based on immunofluorescence using an antibody that has been validated to specifically label both neurites and neuronal cell bodies. Briefly, cells were fixed in 3.7% formaldehyde and nuclei stained with Hoechst dye. Cells were then washed in neurite outgrowth buffer and neurites stained with Cellomics' proprietary primary antibody for neurite outgrowth high content screening. After 1 hour of incubation with the primary antibody, the cells were washed again and then incubated with fluorescently labeled secondary antibody solution for 1 hour. Antibody-stained 96-well plates were store at 4° C. in the dark until scanning. Plates were scanned using Cellomics ArrayScan II Vti HCS scanner. The neurite outgrowth assay uses two channels to carry out the scan. Channel 1 detects the Hoechst Dye and is used by the software to identify cells and for automated focusing. Channel 2 detects the FITC fluorescence of the secondary antibody and is used by the software to calculate all data generated in reference to neurites.

GalR3 = assay: Western blot analysis of GalR3 expression in NS1 cells; type: cell-based; settings: 24 hours after treatment
Method: Cultured NS1 cells were homogenized in RIPA buffer (Upstate Biotechnology) containing proteinase inhibitors (Roche). Protein concentrations were determined using the Biorad DC protein assay kit (Biorad). 20 μg of protein-lysate were separated by SDS poly-acrylamide gel electrophoresis (SDS-PAGE) and blotted onto nylon membranes. Western blots were blocked with 5% non-fat dry milk in Tris-buffered saline containing 0.05% Tween 20 (TBS-T) and the primary antibodies applied at 4° Celsius over night. Blots were probed with horseradish peroxidase (HRP) coupled secondary antibodies at room temperature for 1 h, and developed using the SuperSignal® West Pico Chemiluminescent Substrate (Pierce). We used a polyclonal antibody against GalR3 (Alpha Diagnostics). Blots were normalized to β-actin (Sigma).

Hes5 [4] = assay: qPCR analysis of Hes5 expression in NS-1 cells; type: cell-based
Method: NS-1 cells were plated into collagen I-coated 6 well plate (BD BioCoat) at 150,000 cells per well. 48 hr post NGF treatment at 200 ng/mL NS-1 cells were treated with HT-2157 for 2 hr, 4 hr or 24 hr at concentrations as indicated followed by RNA isolation using Ambion's RNAqueous-4PCR kit. Reverse transcription reactions were performed with Taqman reverse transcription reagents (Applied Biosystems). qPCR was performed on a 7900 real-time PCR machine using Optical 96 well reaction plates (Applied Biosystems). Expression levels were normalized to mouse TBP transcript levels.

[5] = tested on: cultured mouse hippocampal neurons; assay: Neurite outgrowth assay in cultured mouse hippocampal neurons (Example 2); type: cell-based; settings: 100 ng/ml for 24 hours
Method: as §2, §4

Molecule | neurite branch point [1] | neurite count [1] | neurite length [1] | BDNF mRNA levels (BDNF) | Hes5 mRNA levels (Hes5 [2]) | neurite length [3] | extracellular levels of 5-HT in various brain regions (5-HT) | NGFβ mRNA levels (NGFβ) | inhibitory effect of Galanin on 5-HT transmission (5-HT transmission) | average neurite length per cell (NS1 cells) | number of neurite branch points per cell (NS1 cells) | number of neurites per cell (neurite count) (NS1 cells) | total neurite length per cell (NS1 cells) | Expression of GalR3 (GalR3) | mRNA levels of Hes5 (Hes5 [4]; NS1 cells, 2 hours and 4 hours after treatment with 3 or 10 μM, compared to vehicle) | Hes5 mRNA (Hes5 [4]; NS1 cells, 24 hours after treatment) | Hes5 expression (Hes5 [4]; NS-1 cells, treatment at 2 hr and 4 hr, time- and dose-dependent) | branch points [5] | neurite length [5] | number of neurites per cell [5]
O=C1C(=Nc2cccc(C(F)(F)F)c2)c2ccccc2N1c1ccccc1 [HT-2157] | increase | increase | increase | significantly increased | significantly reduced | significantly increased | increase | significantly increased | antagonize | increase | increase | increase | increase | not affected | reduced | returned to baseline levels | down-regulated |  |  | 
NGFβ: nerve growth factor β, neurotrophin (Sigma) |  |  |  |  |  |  |  |  |  |  |  |  |  |  |  |  |  | increased | increased | increased
